≈ marks a conversion by molar mass, not a printed value. Read-outs that look alike come from different tables or passages of the source.
Tests used:
TOSV = experiment: microbe, parasite or virus in culture; assay type: cell-based, Toscana virus
[1] = Cytotoxicity assay (CellTiter-Blue), Vero E6 cells; details: for CC50: cell line not given; for CC50 at 4 days: monkey (simian), Vero E6 cells, CC50, Simian Vero E6 cells, value repeated under each virus
HAZV = experiment: microbe, parasite or virus in culture; assay type: cell-based; details: Hazara virus, Vero C1008, read-out: IC50 HAZV
TAHV = experiment: microbe, parasite or virus in culture; assay type: cell-based; details: Tahyna virus, Vero C1008, read-out: IC50 TAHV
RVFV [2] = experiment: microbe, parasite or virus in culture; assay type: cell-based; details: Rift Valley fever virus, Vero C1008, read-out: IC50 RVFV
YFV [3] = experiment: microbe, parasite or virus in culture; assay type: cell-based; details: Yellow fever virus, Vero C1008, read-out: IC50 YFV
DENV = experiment: Virus yield reduction assay, DENV in Vero E6 cells; assay type: cell-based; details: Dengue virus, Vero C1008; Simian Vero E6 cells; FLAVI virus family
TBEV [4] = experiment: microbe, parasite or virus in culture; assay type: cell-based; details: Tick-borne encephalitis virus, Vero C1008, read-out: IC50 TBEV
ZIKV = experiment: Virus yield reduction assay, ZIKV in Vero E6 cells; assay type: cell-based; details: Zika virus, Vero C1008; Simian Vero E6 cells; FLAVI virus family
VEEV [5] = experiment: microbe, parasite or virus in culture; assay type: cell-based; details: Venezuelan equine encephalitis virus, Vero C1008, read-out: IC50 VEEV
RVFV [6] = experiment: microbe, parasite or virus in culture; assay type: cell-based; details: Rift Valley fever virus, L929, in Mus musculus, read-out: IC50 RVFV
TBEV [7] = experiment: microbe, parasite or virus in culture; assay type: cell-based; details: Tick-borne encephalitis virus, L929, in Mus musculus, read-out: IC50 TBEV
VEEV [8] = experiment: microbe, parasite or virus in culture; assay type: cell-based; details: Venezuelan equine encephalitis virus, L929, in Mus musculus, read-out: IC50 VEEV
RVFV [9] = experiment: microbe, parasite or virus in culture; assay type: cell-based; details: Rift Valley fever virus, SW13, read-out: IC50 RVFV
TBEV [10] = experiment: microbe, parasite or virus in culture; assay type: cell-based; details: Tick-borne encephalitis virus, SW13, read-out: IC50 TBEV
VEEV [11] = experiment: microbe, parasite or virus in culture; assay type: cell-based; details: Venezuelan equine encephalitis virus, SW13, read-out: IC50 VEEV
RVFV [12] = experiment: microbe, parasite or virus in culture; assay type: cell-based; details: Rift Valley fever virus, HEK293, read-out: IC50 RVFV
VEEV [13] = experiment: microbe, parasite or virus in culture; assay type: cell-based; details: Venezuelan equine encephalitis virus, HEK293, read-out: IC50 VEEV
Plasma stability = details: 1 μm, 37° C., mouse plasma diluted with 1 volume of PBS pH 7.4
Plasma protein binding = details: mouse, plasma diluted with 1 volume of PBS pH 7.4, pH 7.4
Solubility in PBS pH 7.4 = details: PBS pH 7.4, 20 °C, pH 7.4, aqueous buffer
[14] = Log D (PBS pH 7.4/octanol)
[15] = Hydrolysis study in mouse liver extract; details: FIG. 1, FIG. 2
[16] = Metabolic stability in S9 fraction
RVFV [17] = experiment: microbe, parasite or virus in culture; assay type: cell-based; details: Rift Valley fever virus, BHK-21, in Mesocricetus auratus, read-out: IC50 RVFV
VEEV [18] = experiment: microbe, parasite or virus in culture; assay type: cell-based; details: Venezuelan equine encephalitis virus, BHK-21, in Mesocricetus auratus, read-out: IC50 VEEV
[19] = Cytotoxicity assay, L929 cells; details: mouse
[20] = Cytotoxicity assay, SW13 cells; details: human
[21] = Cytotoxicity assay, BHK-21 cells; details: hamster, BHK-21 cells, CC50, Hamster BHK-21 cells; value repeated under each virus
Vero E6 cells = experiment: Cytotoxicity assay (CellTiter-Blue), Vero E6 cells; details: Simian Vero E6 cells; value repeated under each virus
[22] = Cytotoxicity assay (CellTiter-Blue), HEK-293 cells; details: human
YFV [23] = experiment: microbe, parasite or virus in culture; assay type: cell-based; details: Yellow fever virus, BHK-21, in Mesocricetus auratus, read-out: IC50 YFV
[24] = Hepatic microsome stability; details: 1 μm, 37° C., 0.5 mg/mL microsomes of mouse liver; cofactor: NADPH
TBEV [25] = experiment: microbe, parasite or virus in culture; assay type: cell-based; details: Tick-borne encephalitis virus, HEK293, read-out: IC50 TBEV
[26] = Toscana virus, Vero C1008, read-out: IC50 (TOSV)

Row | Compound | IC50 (TOSV; [26]) | CC50 [1] | IC50 (HAZV) | IC50 (TAHV) | IC50 (RVFV [2]) | IC50 (TBEV [4]) | IC50 (VEEV [5]) | IC50 (TBEV [7]) | IC50 (VEEV [8]) | CC50 at 4 days [1] | CC50 [19] | further results
1 | CCC(C)c1ccccc1OCC(=O)Nc1ccc2c(c1C(=O)O)OC(F)(F)O2 (stereo not drawn) [Example 16] | 4 µM | 37 µM |  |  |  |  |  |  |  |  |  | 
2 | CCC(C)c1ccccc1OCCCC(=O)Nc1ccccc1C(=O)O (racemic) [Example 3] | 0.07 ± 0.01 µM |  | 0.11 µM | 0.04 µM | 0.16 µM | 0.08 µM | 0.03 µM | 0.3 µM | 0.6 µM | 18.5 ± 1.5 µM |  | IC50 (YFV [3]): 0.11 µM; IC50 (DENV): 0.11 µM; IC50 (ZIKV): 0.11 µM; IC50 (RVFV [6]): 0.17 µM; IC50 (RVFV [9]): 0.05 µM; IC50 (TBEV [10]): 0.1 µM; IC50 (VEEV [11]): 0.13 µM; IC50 (RVFV [12]): 0.015 µM; IC50 (VEEV [13]): 0.05 µM; Plasma stability [% remaining at 2 h] (Plasma stability): 85 ± 4 % remaining at 2 h; fraction unbound at 1 μM (Plasma protein binding): 0.01; solubility (Solubility in PBS pH 7.4): 1540 ± 50 µM (≈ 547 µg/mL); logD [14]: 2.59 ± 0.03; Hydrolysis in mouse liver extract (amide bond stability) [15]: cleavage of the amide bond
3 | CCC(C)c1ccccc1OCCCC(=O)Nc1cnccc1C(=O)O (stereo not drawn) [Example 15] | ~0.5 µM | > 25 µM |  |  |  |  |  |  |  |  |  | 
4 | CCC(C)(C)c1ccccc1OCCOC(=O)Nc1ccccc1C(=O)O [Example 13] | 0.128 µM | > 25 µM |  |  |  |  |  |  |  |  |  | Metabolic stability in a S9 fraction (rat) [16]: high metabolic stability
5 | COc1ccc(Nc2ccc(Oc3ccccc3)cc2)c(C(=O)O)c1 [Example 4] | 0.08 µM |  | 0.12 µM | 0.1 µM | 0.02 µM | 0.12 µM | 0.06 µM | 0.16 µM | 0.22 µM | 71 ± 1 µM | 70 µM | IC50 (YFV [3]): 0.22 µM; IC50 (DENV): 0.18 µM; IC50 (RVFV [17]): 0.85 µM; IC50 (VEEV [18]): 1.3 µM; IC50 (RVFV [9]): 0.13 µM; IC50 (TBEV [10]): 0.38 µM; IC50 (VEEV [11]): 0.22 µM; CC50 [20]: 75 µM; CC50 [21]: 125 µM; CC50 (Vero E6 cells): 37.9 µM; CC50 at 3 days [22]: 125 µM
6 | O=C(O)c1ccccc1Nc1ccc(Cc2ccccc2)cc1 [Example 5] | 0.325 µM |  | 0.36 µM | 0.45 µM |  |  |  |  | > 1 µM | 44 µM | 60 µM | CC50 (Vero E6 cells): 77.5 µM
7 | CCC(=O)Nc1ccc(-c2ccc(-c3ccccc3)cc2)cc1C(=O)O [Example 6] | 0.12 µM |  | 0.12 µM |  | 0.14 µM | 0.12 ± 0.01 µM | 0.12 µM | 0.009 µM | 0.009 µM | 10 µM | 15 µM | IC50 (RVFV [6]): 0.003 µM; IC50 (RVFV [17]): > 0.2 µM; IC50 (YFV [23]): > 0.2 µM; IC50 (VEEV [13]): 0.019 µM; Plasma stability [% remaining at 2 h] (Plasma stability): 94 ± 6 % remaining at 2 h; solubility (Solubility in PBS pH 7.4): 61 ± 17 µM (≈ 21.1 µg/mL); logD [14]: 3.07 ± 0.05; Hepatic microsome stability [% remaining at 1 h] [24]: 49 ± 0 % remaining at 1 h; Hydrolysis in mouse liver extract (amide bond stability) [15]: more stable
8 | O=C(O)c1ccccc1NC(=O)n1ccc2ccccc21 [Example 14] | 9 µM | 40 µM |  |  |  |  |  |  |  |  |  | 
9 | CCc1nc2cc(-c3ccc(-c4ccccc4)cc3)cc(C(=O)O)c2[nH]1 [Example 19] | 0.118 µM | 8 µM |  |  |  |  |  |  |  |  |  | 
10 | CC(C)c1ccccc1SCC(=O)Nc1ccccc1C(=O)O [Example 2] | 0.55 ± 0.05 µM |  | 0.7 ± 0.2 µM | 0.27 µM | ~2 µM |  |  |  |  | 110 ± 10 µM |  | IC50 (YFV [3]): 0.7 ± 0.2 µM; IC50 (RVFV [9]): 0.5 µM; IC50 (TBEV [10]): 0.93 µM; IC50 (VEEV [11]): 1.5 µM; IC50 (RVFV [12]): 0.4 µM; IC50 (VEEV [13]): 0.45 µM
11 | Cc1ccc(NC(=O)COc2ccccc2Cc2ccccc2)c(C(=O)O)c1 [Example 1] | 0.09 µM |  | 0.05 µM | 0.17 µM | 0.09 µM | 0.22 µM | 0.07 µM | 0.08 µM |  | 60 ± 15 µM | 60 µM | IC50 (YFV [3]): 0.2 µM; IC50 (DENV): 0.19 µM; IC50 (RVFV [6]): 0.04 µM; IC50 (RVFV [17]): 0.7 ± 0.03 µM; IC50 (VEEV [18]): 0.36 µM; IC50 (RVFV [9]): 0.28 µM; IC50 (TBEV [10]): 0.67 µM; IC50 (VEEV [11]): 0.1 µM; IC50 (RVFV [12]): 0.04 ± 0.02 µM; Plasma stability [% remaining at 2 h] (Plasma stability): 75 ± 0 % remaining at 2 h; fraction unbound at 1 μM (Plasma protein binding): 0.01; solubility (Solubility in PBS pH 7.4): 167 ± 7 µM (≈ 62.7 µg/mL); logD [14]: 2.62 ± 0.03; CC50 [20]: 60 µM; CC50 [21]: 140 µM; CC50 at 3 days [22]: 80 µM
12 | CCC(C)c1ccccc1OCCOC(=O)Nc1ccccc1C(=O)O (stereo not drawn) [Example 12] | 0.19 µM | 51 µM |  |  |  |  |  |  |  |  |  | Metabolic stability in a S9 fraction (rat) [16]: high metabolic stability
13 | CCC(C)c1ccccc1OCc1nc2ccc(C)cc2c(=O)o1 (stereo not drawn) [Example 20] | 0.6 µM | 75 µM |  |  |  |  |  |  |  |  |  | 
14 | CCC(=O)Nc1ccc(-c2ccc(-c3ccccc3)c(F)c2)cc1C(=O)O [Example 7] | 0.11 µM |  | 0.07 µM | 0.12 µM | 0.12 µM | 0.013 µM | 0.12 µM | 0.004 µM | 0.007 µM | 15 µM | 9 µM | IC50 (RVFV [6]): 0.0055 µM; IC50 (VEEV [13]): 0.014 µM
15 | CCCCCc1ccc(C#Cc2ccc(NC(=O)CC)c(C(=O)O)c2)cc1 [Example 8, 5-((4-pentylphenyl)ethynyl)-2-propionamidobenzoic acid] | 0.01 µM |  | 0.008 µM | 0.01 µM | 0.006 µM | 0.07 µM | 0.007 µM | 0.0015 µM | 0.003 µM | 8 µM | 5 µM | IC50 (YFV [3]): 0.006 µM; IC50 (DENV): 0.005 µM; IC50 (ZIKV): 0.009 µM; IC50 (RVFV [6]): 0.002 µM; IC50 (RVFV [17]): 0.016 µM; IC50 (YFV [23]): 0.022 µM; IC50 (RVFV [9]): 0.008 µM; IC50 (TBEV [10]): 0.013 µM; IC50 (VEEV [11]): 0.013 µM; IC50 (RVFV [12]): 0.0015 µM; IC50 (TBEV [25]): 0.0031 µM; IC50 (VEEV [13]): 0.0015 µM; Plasma stability [% remaining at 2 h] (Plasma stability): 114 ± 5 % remaining at 2 h; solubility (Solubility in PBS pH 7.4): 18 ± 6 µM (≈ 6.54 µg/mL); logD [14]: 4.6 ± 0.3; Hepatic microsome stability [% remaining at 1 h] [24]: 70 ± 3 % remaining at 1 h; CC50 [20]: 20 µM; CC50 [21]: 7.5 µM
16 | O=C(COc1ccccc1Cc1ccccc1)Nc1ccc2c(c1C(=O)O)OC(F)(F)O2 [Example 17] | 6 µM | 32 µM |  |  |  |  |  |  |  |  |  | 
17 | Cc1ccc2nc(COc3ccc(Cl)cc3Cc3ccccc3)oc(=O)c2c1 [Example 21] | 0.8 µM | > 100 µM |  |  |  |  |  |  |  |  |  | 
18 | CCC(C)c1ccccc1OCCCc1nc2ccc(F)cc2c(=O)o1 (stereo not drawn) [Example 22] | 0.3 µM | 17 µM |  |  |  |  |  |  |  |  |  | 
19 | CS(N)(=O)=O [methyl sulfonamide] |  |  |  |  |  |  |  |  |  |  |  | IC50 (TOSV; read-out: IC50 (TOSV)): 1.5 µM

— patent US20220227720A1, “DHODH INHIBITORS AND THEIR USE AS ANTIVIRAL AGENTS” (priority 2019, published 2022)
